Measurements reported in article PMC9953561, “Five Post-Translational Modification Residues of CmPT2 Play Key Roles in Yeast and Rice” (International Journal of Molecular Sciences, 2023).

Tested on: CmPT2 (CmPht1;2)
Details: labelled compound; H+ co-transporter; whole yeast cells; pH of uptake assay not stated

Compound: O=P(O)(O)O [phosphate]
- Km: 65.7 µM
